In patent US20240287066A1, “Crystalline Form of Sotorasib” (Sandoz AG, priority 2021, published 2024):
Where two headings read alike, the source gives them in different places.

Key:
[1] = Gravimetric moisture sorption (GMS) of sotorasib Form A; format: physicochemical
Protocol: Gravimetric moisture sorption was performed with an SPSx-1μ moisture sorption analyzer (ProUmid, Ulm). The measurement cycle was started at ambient relative humidity (RH) of 40%. RH was then decreased to 5% in 5% steps, followed by a further decrease to 3% and to 0%. […] Finally, RH was increased to ambient relative humidity of 40% in 5% steps. The time per step was set to a minimum of 2 hours and a maximum of 6 hours. If an equilibrium condition with a constant mass of ±0.01% within 1 hour was reached before the maximum time for all examined samples the sequential humidity step was applied before the maximum time of 6 hours. If no equilibrium was achieved the consecutive humidity step was applied after the maximum time of 6 hours. The temperature was (25±0.1)° C.

[2] = Stress stability (temperature and humidity stress, PXRD read-out); format: physicochemical; conditions: for solid form by PXRD after stress storage: 30 weeks, open stored in glass vials
Source text: Sotorasib Form A of the present invention was subjected to various temperature and humidity stress conditions for 30 weeks as outlined in Table 3 below. The samples were open stored in glass vials.

[3] = Powder dissolution in acetate buffer pH 4.5 and phosphate buffer pH 6.8; format: physicochemical; conditions: for solubility compared to crystalline Form I (in words): 15 minutes to 24 hours; for phase change by PXRD during the dissolution experiments: acetate buffer pH 4.5 and phosphate buffer pH 6.8, 37° C., up to 24 hours
Protocol: Powder dissolution experiments were carried out at a temperature of 37° C. in acetate buffer pH 4.5 and phosphate buffer pH 6.8 for the crystalline Form I of sotorasib disclosed in WO 2020/236947 A1 and the crystalline Form A of sotorasib of the present invention. Particle sizes of both forms were kept as similar as possible to allow for proper comparison. The respective concentrations were determined at a wavelength of 293 nm in case of the acetate buffer and at 354 nm in case of the phosphate buffer.

[4] = cited from earlier work; for Mass increase from 0-90% RH at 25° C.: GMS, data from paragraph [0334] on page 46 of WO 2020/236947 A1; for hygroscopic behaviour (in words): GMS data of WO 2020/236947 A1, 0-90% RH, 25° C.

With C=CC(=O)N1CCN(c2nc(=O)n(-c3c(C)ccnc3C(C)C)c3nc(-c4c(O)cccc4F)c(F)cc23)[C@@H](C)C1 [Sotorasib Form A, 6-fluoro-7-(2-fluoro-6-hydroxyphenyl)-1-(4-methyl-2-(2-propanyl)-3-pyridinyl)-4-((2S)-2-methyl-4-(2-propenoyl)-1-piperazinyl)pyrido[2,3-d]pyrimidin-2(1H)-one] the “hygroscopic behaviour (in words)” value ([1]; GMS, 0-90% RH, 25° C.) was “slightly hygroscopic”, the “mass difference in the sorption cycle between 0 and 90% RH” value ([1]; GMS, 0-90% RH, (25±0.1)° C.) was “about 0.4 w-%” and the “Mass increase from 0-90% RH at 25° C.” value ([1]; GMS, data from FIG. 4 of present invention) was “+0.4%”. For the same compound, the “PXRD of the sample after the GMS experiment” value ([1]; after sorption/desorption cycle 0-90% RH, 25° C.) was “same PXRD”, the “solid form by PXRD after stress storage” value ([2]; 25° C./60% RH) was “Form A” and the “solid form by PXRD after stress storage” value ([2]; 30° C./65% RH) was “Form A”. For the same compound, the “solid form by PXRD after stress storage” value ([2]; 40° C./75% RH) was “Form A”, the “solid form by PXRD after stress storage” value ([2]; RT/0% RH) was “Form A” and the “solid form by PXRD after stress storage” value ([2]; RT/97% RH) was “Form A”. For the same compound, the “phase change by PXRD at any stress condition” value ([2]; all temperature and humidity stress conditions of Table 3, 30 weeks) was “no phase change occurred”, the “solubility compared to crystalline Form I (in words)” value ([3]; acetate buffer pH 4.5, 37° C., FIG. 5) was “significantly increased solubility” and the “equilibrium solubility after 24 hours compared to crystalline Form I” value ([3]; acetate buffer pH 4.5, 37° C.) was “about 3 fold”. The “phase change by PXRD during the dissolution experiments” value [3] was “no phase changes occurred”, the “solubility compared to crystalline Form I (in words)” value ([3]; phosphate buffer pH 6.8, 37° C., FIG. 6) was “significantly increased solubility” and the “equilibrium solubility after 24 hours compared to crystalline Form I” value ([3]; phosphate buffer pH 6.8, 37° C.) was “about 2 fold”.

In the case of C=CC(=O)N1CCN(c2nc(=O)n(-c3c(C)ccnc3C(C)C)c3nc(-c4c(O)cccc4F)c(F)cc23)[C@@H](C)C1 [Form I of WO 2020/236947 A1, 6-fluoro-7-(2-fluoro-6-hydroxyphenyl)-1-(4-methyl-2-(2-propanyl)-3-pyridinyl)-4-((2S)-2-methyl-4-(2-propenoyl)-1-piperazinyl)pyrido[2,3-d]pyrimidin-2(1H)-one], the “phase change by PXRD during the dissolution experiments” value [3] is given as “no phase changes occurred”, the “Mass increase from 0-90% RH at 25° C.” value [4] is given as “+0.5-1.0% ^” and the “Mass increase from 0-90% RH at 25° C.” value ([4]; listed as Form I) is given as 0.5-1.0%.

In the case of C=CC(=O)N1CCN(c2nc(=O)n(-c3c(C)ccnc3C(C)C)c3nc(-c4c(O)cccc4F)c(F)cc23)[C@@H](C)C1 [Form II of WO 2020/236947 A1, 6-fluoro-7-(2-fluoro-6-hydroxyphenyl)-1-(4-methyl-2-(2-propanyl)-3-pyridinyl)-4-((2S)-2-methyl-4-(2-propenoyl)-1-piperazinyl)pyrido[2,3-d]pyrimidin-2(1H)-one], the “hygroscopic behaviour (in words)” value [4] is given as “hygroscopic” and the “Mass increase from 0-90% RH at 25° C.” value [4] is given as “+2-2.5%^”.

In the case of C=CC(=O)N1CCN(c2nc(=O)n(-c3c(C)ccnc3C(C)C)c3nc(-c4c(O)cccc4F)c(F)cc23)[C@@H](C)C1 [Form III of WO 2020/236947 A1, 6-fluoro-7-(2-fluoro-6-hydroxyphenyl)-1-(4-methyl-2-(2-propanyl)-3-pyridinyl)-4-((2S)-2-methyl-4-(2-propenoyl)-1-piperazinyl)pyrido[2,3-d]pyrimidin-2(1H)-one], the “hygroscopic behaviour (in words)” value [4] is listed as “hygroscopic” and the “Mass increase from 0-90% RH at 25° C.” value [4] is listed as “+7.0%”.
